Test [1] addresses 5-hydroxytryptamine receptor 1B (Homo sapiens, UniProt P28222). The test is described as follows: PDSP Secondary Binding target: HTR1B - Compounds are tested at 10 uM concentration, plate are incubated at room temperature in the dark for 90 minutes. Reaction are stopped by vacuum filtration onto 0.3% polyethyleneimine soaked filter mats using Filtermate harvester. Scintillation cocktail is then melted onto microwave-dried filters on a hot plate and the radio activity is counted in Microbia counter.

For the next test, the target named is D(2) dopamine receptor (Homo sapiens, UniProt P14416). As to the kind of experiment: PDSP Secondary Binding target: DRD2 - Compounds are tested at 10 uM concentration, plate are incubated at room temperature in the dark for 90 minutes. Reaction are stopped by vacuum filtration onto 0.3% polyethyleneimine soaked filter mats using Filtermate harvester. Scintillation cocktail is then melted onto microwave-dried filters on a hot plate and the radio activity is counted in Microbia counter.

The next test addresses D(3) dopamine receptor (Homo sapiens, UniProt P35462). The test is described as follows: PDSP Secondary Binding target: DRD3 - Compounds are tested at 10 uM concentration, plate are incubated at room temperature in the dark for 90 minutes. Reaction are stopped by vacuum filtration onto 0.3% polyethyleneimine soaked filter mats using Filtermate harvester. Scintillation cocktail is then melted onto microwave-dried filters on a hot plate and the radio activity is counted in Microbia counter.

The target in test [2] is Sigma intracellular receptor 2 (Homo sapiens, UniProt Q5BJF2). As to the kind of experiment: PDSP Secondary Binding target: TMEM97 - Compounds are tested at 10 uM concentration, plate are incubated at room temperature in the dark for 90 minutes. Reaction are stopped by vacuum filtration onto 0.3% polyethyleneimine soaked filter mats using Filtermate harvester. Scintillation cocktail is then melted onto microwave-dried filters on a hot plate and the radio activity is counted in Microbia counter.

Test [3] deals with 5-hydroxytryptamine receptor 6 (Homo sapiens, UniProt P50406). As to the kind of experiment: PDSP Secondary Binding target: HTR6 - Compounds are tested at 10 uM concentration, plate are incubated at room temperature in the dark for 90 minutes. Reaction are stopped by vacuum filtration onto 0.3% polyethyleneimine soaked filter mats using Filtermate harvester. Scintillation cocktail is then melted onto microwave-dried filters on a hot plate and the radio activity is counted in Microbia counter.

Test [4] has as its target Sigma non-opioid intracellular receptor 1 (Homo sapiens, UniProt Q99720). As to the kind of experiment: PDSP Secondary Binding target: SIGMAR1 - Compounds are tested at 10 uM concentration, plate are incubated at room temperature in the dark for 90 minutes. Reaction are stopped by vacuum filtration onto 0.3% polyethyleneimine soaked filter mats using Filtermate harvester. Scintillation cocktail is then melted onto microwave-dried filters on a hot plate and the radio activity is counted in Microbia counter.

A further test deals with Histamine H1 receptor (Homo sapiens, UniProt P35367). The test is described as follows: PDSP Secondary Binding target: HRH1 - Compounds are tested at 10 uM concentration, plate are incubated at room temperature in the dark for 90 minutes. Reaction are stopped by vacuum filtration onto 0.3% polyethyleneimine soaked filter mats using Filtermate harvester. Scintillation cocktail is then melted onto microwave-dried filters on a hot plate and the radio activity is counted in Microbia counter.

For test [5], the target named is 5-hydroxytryptamine receptor 2B (Homo sapiens, UniProt P41595). As to the kind of experiment: PDSP Secondary Binding target: HTR2B - Compounds are tested at 10 uM concentration, plate are incubated at room temperature in the dark for 90 minutes. Reaction are stopped by vacuum filtration onto 0.3% polyethyleneimine soaked filter mats using Filtermate harvester. Scintillation cocktail is then melted onto microwave-dried filters on a hot plate and the radio activity is counted in Microbia counter.

The target in test [6] is T1, Alpha-1A adrenergic receptor (Homo sapiens, UniProt P35348).
T1 sequence (P35348 whole entry): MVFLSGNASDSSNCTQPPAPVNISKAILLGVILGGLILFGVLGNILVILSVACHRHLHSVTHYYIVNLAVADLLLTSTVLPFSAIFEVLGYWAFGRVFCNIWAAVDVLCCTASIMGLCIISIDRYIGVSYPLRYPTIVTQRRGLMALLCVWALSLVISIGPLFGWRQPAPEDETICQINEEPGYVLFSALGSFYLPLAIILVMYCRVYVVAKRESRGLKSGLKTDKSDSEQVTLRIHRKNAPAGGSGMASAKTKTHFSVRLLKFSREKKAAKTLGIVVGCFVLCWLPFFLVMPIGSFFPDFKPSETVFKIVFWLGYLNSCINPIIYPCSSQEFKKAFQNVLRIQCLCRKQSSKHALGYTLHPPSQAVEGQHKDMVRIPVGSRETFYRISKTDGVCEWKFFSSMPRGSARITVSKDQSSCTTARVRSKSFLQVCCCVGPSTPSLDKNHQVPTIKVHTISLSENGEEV
The test is described as follows: PDSP Secondary Binding target: ADRA1A - Compounds are tested at 10 uM concentration, plate are incubated at room temperature in the dark for 90 minutes. Reaction are stopped by vacuum filtration onto 0.3% polyethyleneimine soaked filter mats using Filtermate harvester. Scintillation cocktail is then melted onto microwave-dried filters on a hot plate and the radio activity is counted in Microbia counter.

Test [7] addresses T2, Alpha-1D adrenergic receptor (Homo sapiens, UniProt P25100).
T2 sequence (P25100 whole entry): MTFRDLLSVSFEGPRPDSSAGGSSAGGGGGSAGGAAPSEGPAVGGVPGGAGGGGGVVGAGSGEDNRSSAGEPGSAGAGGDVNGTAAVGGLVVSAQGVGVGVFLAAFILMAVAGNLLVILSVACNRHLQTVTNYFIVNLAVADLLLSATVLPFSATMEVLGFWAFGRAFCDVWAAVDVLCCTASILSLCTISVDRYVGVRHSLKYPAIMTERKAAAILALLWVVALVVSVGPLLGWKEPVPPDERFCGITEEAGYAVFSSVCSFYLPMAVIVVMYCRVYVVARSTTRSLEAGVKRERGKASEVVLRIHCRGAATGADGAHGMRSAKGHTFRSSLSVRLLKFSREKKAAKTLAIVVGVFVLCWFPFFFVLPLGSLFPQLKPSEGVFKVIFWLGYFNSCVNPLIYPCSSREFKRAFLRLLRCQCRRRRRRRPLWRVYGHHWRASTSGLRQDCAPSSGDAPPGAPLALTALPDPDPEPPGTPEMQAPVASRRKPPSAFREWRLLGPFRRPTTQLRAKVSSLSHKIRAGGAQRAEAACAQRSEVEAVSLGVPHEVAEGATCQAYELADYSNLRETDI
As to the kind of experiment: PDSP Secondary Binding target: ADRA1D - Compounds are tested at 10 uM concentration, plate are incubated at room temperature in the dark for 90 minutes. Reaction are stopped by vacuum filtration onto 0.3% polyethyleneimine soaked filter mats using Filtermate harvester. Scintillation cocktail is then melted onto microwave-dried filters on a hot plate and the radio activity is counted in Microbia counter.

The structures appear in SMILES notation. Where a name gives a salt, the structure may show the parent alone.

Sequence of 5-hydroxytryptamine receptor 1B (P28222 whole entry): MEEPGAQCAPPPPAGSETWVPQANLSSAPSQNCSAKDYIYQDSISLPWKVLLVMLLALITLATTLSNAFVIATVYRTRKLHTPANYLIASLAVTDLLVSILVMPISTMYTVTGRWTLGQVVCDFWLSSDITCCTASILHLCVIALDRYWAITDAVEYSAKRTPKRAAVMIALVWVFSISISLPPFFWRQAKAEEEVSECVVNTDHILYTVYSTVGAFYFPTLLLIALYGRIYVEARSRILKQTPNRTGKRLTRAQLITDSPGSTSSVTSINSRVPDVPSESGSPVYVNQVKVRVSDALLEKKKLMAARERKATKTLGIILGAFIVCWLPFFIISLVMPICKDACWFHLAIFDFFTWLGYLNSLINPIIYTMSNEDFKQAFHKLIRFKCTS
Sequence of Histamine H1 receptor (P35367 whole entry): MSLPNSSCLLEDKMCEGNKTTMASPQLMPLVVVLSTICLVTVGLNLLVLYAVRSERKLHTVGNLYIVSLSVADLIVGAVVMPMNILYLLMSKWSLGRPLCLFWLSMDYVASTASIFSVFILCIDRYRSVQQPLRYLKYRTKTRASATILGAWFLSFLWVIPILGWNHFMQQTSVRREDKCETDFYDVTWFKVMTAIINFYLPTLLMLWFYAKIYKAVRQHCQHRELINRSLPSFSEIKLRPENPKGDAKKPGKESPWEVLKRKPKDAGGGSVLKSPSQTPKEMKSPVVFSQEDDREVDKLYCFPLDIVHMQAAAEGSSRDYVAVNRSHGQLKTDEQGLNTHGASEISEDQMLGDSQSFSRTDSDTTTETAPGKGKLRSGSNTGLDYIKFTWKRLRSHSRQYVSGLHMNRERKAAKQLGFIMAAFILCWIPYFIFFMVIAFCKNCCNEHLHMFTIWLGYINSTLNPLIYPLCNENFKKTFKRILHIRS
Sequence of 5-hydroxytryptamine receptor 2B (P41595 whole entry): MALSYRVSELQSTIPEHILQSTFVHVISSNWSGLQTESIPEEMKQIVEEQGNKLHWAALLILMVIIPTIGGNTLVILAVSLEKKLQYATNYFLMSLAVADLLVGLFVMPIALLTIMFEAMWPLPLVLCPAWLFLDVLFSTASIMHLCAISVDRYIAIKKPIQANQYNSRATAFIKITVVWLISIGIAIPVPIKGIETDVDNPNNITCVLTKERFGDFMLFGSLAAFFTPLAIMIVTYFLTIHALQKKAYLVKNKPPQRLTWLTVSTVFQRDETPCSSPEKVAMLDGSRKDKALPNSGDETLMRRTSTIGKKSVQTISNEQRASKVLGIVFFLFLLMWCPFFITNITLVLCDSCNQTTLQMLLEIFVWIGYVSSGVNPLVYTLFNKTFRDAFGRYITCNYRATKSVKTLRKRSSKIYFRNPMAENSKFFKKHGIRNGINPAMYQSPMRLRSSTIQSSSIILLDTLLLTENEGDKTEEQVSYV
Sequence of Sigma non-opioid intracellular receptor 1 (Q99720 whole entry): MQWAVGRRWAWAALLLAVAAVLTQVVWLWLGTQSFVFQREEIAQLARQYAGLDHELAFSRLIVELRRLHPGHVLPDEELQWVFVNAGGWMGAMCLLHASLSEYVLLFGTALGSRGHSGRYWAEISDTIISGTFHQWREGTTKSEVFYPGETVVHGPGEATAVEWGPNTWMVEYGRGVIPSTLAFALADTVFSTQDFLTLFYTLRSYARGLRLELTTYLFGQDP
Sequence of D(3) dopamine receptor (P35462 whole entry): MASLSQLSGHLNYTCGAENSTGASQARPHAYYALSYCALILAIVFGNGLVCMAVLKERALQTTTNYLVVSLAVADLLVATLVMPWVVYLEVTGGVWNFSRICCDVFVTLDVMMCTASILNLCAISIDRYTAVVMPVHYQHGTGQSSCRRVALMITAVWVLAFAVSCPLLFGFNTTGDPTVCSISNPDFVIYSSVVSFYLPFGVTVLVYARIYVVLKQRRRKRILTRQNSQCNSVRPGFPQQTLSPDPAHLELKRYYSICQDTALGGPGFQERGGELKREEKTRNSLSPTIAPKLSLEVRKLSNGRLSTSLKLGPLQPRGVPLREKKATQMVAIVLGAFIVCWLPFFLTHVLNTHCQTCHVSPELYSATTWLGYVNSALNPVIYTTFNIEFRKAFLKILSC
Sequence of Sigma intracellular receptor 2 (Q5BJF2 whole entry): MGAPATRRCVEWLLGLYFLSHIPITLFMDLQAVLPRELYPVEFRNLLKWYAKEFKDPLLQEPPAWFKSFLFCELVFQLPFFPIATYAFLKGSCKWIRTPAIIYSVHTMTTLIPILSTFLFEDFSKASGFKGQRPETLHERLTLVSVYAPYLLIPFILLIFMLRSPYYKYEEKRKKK
Sequence of 5-hydroxytryptamine receptor 6 (P50406 whole entry): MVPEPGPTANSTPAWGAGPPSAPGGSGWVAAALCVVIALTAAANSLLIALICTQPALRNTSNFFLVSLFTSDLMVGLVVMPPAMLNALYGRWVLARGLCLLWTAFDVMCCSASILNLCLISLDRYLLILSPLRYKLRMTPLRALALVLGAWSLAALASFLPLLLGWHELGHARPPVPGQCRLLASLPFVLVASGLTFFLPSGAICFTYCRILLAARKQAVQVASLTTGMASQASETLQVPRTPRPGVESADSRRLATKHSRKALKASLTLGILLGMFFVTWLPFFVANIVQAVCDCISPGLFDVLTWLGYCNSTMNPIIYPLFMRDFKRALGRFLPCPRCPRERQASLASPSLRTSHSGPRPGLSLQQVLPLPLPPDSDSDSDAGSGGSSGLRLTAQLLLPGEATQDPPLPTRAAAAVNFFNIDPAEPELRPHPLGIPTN
Sequence of D(2) dopamine receptor (P14416 whole entry): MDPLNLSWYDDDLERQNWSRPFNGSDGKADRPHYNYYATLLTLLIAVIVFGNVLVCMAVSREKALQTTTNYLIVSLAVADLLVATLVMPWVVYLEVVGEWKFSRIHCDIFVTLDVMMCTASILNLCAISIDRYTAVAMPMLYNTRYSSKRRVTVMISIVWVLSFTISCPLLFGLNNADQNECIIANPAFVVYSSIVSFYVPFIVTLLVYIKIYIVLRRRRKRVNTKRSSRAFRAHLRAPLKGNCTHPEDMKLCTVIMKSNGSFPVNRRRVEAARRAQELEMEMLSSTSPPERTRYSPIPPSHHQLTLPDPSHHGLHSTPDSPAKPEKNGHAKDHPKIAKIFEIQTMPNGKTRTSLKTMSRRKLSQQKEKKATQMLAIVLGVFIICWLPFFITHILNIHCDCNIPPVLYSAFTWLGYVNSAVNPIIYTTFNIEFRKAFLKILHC

`CN1CCC(=C2c3ccccc3CC(=O)c3sccc32)CC1` [KETOTIFEN FUMARATE]: the Ki in test [1] came to 1750 nM; on D(2) dopamine receptor, 1730 nM; on D(3) dopamine receptor, 717 nM; in [2], 366 nM; in [3], 825 nM.
Take `COC(=O)C1=C(C)NC(C)=C(C(=O)OCCCN2CCC(c3ccccc3)(c3ccccc3)CC2)[C@H]1c1cccc([N+](=O)[O-])c1` [NIGULDIPINE]: the Ki in [1] turned out to be 366 nM; on D(2) dopamine receptor, 280 nM; in test [4], 320 nM; on D(3) dopamine receptor, 425 nM; on Histamine H1 receptor it was 89.7 nM; in test [2], 328 nM. The affinity in test [3] corresponds to a Ki of 878 nM.
`Clc1cccc(COc2cncc(N3CCNCC3)n2)c1`: the Ki in test [1] worked out at 1660 nM; in test [4], 32.7 nM; at D(3) dopamine receptor, 284 nM; at Histamine H1 receptor, 1450 nM; in test [5], 9.94 nM.
Turning to `O=S1(=O)c2cccc3cccc(c23)N1CCCN1CCN(c2ccc(F)cc2)CC1` [FANANSERIN], the Ki in test [4] is 696 nM; at D(3) dopamine receptor it was 1020 nM; on Histamine H1 receptor it was 30.6 nM; in [2], 1320 nM; in test [3] it was 5110 nM; in [6], 195 nM.
For `COc1ccc(NS(=O)(=O)c2sc3ccc(Cl)cc3c2C)cc1N1CCNCC1`, the Ki is 598 nM in test [4], 804 nM in [5] and 663 nM in [2].
For `OCc1cc(C(O)CNCCCCCCOCCCCc2ccccc2)ccc1O` (stereo not drawn) [SALMETEROL], the Ki in test [1] came to 1990 nM; at D(3) dopamine receptor, 1260 nM; in test [2] it was 32.4 nM; in test [7] it was 963 nM; in [6], 549 nM.
For the compound `COc1cc(-n2cnc3cc(-c4ccc(Cl)cc4)sc3c2=O)ccc1OCCN1CCCC1`, the Ki in [4] stood at 12 nM; on D(3) dopamine receptor, 768 nM; in test [5] it was 528 nM; in test [2], 185 nM; in test [7], 6050 nM.
As for `CCOC(=O)c1c(C)[nH]c2ccc3c(c12)CN1CCc2cc(OC)ccc2C1O3` (stereo not drawn), the Ki in [1] was 2160 nM; in [5], 500 nM.
In the case of `CN(C)C(=O)N[C@H]1CC[C@H](CCN2CCN(c3cccc(Cl)c3Cl)CC2)CC1` [CARIPRAZINE HYDROCHLORIDE], the Ki in test [1] amounted to 129 nM; in [2] it was 488 nM; in [3], 1300 nM; in [7], 323 nM.
As for `CCc1cc2c(cc1CC)CC(NC[C@H](O)c1ccc(O)c3[nH]c(=O)ccc13)C2` [INDACATEROL], the Ki at D(3) dopamine receptor is 1340 nM; in test [2], 107 nM; in [3], over 10000 nM; in [7] it was 731 nM; in [6] it was 356 nM.
Consider `COc1ccc(NC(=O)c2ccc(-c3ccc(-c4noc(C)n4)cc3C)cc2)cc1OCCN(C)C`, for which the values for the Ki in test [1], in [4] and in test [2] were 1.18 nM, 3110 nM and 694 nM, respectively.
For `C[C@@H](NCCCc1cccc(C(F)(F)F)c1)c1cccc2ccccc12` [CINACALCET HYDROCHLORIDE], the Ki is 391 nM at D(3) dopamine receptor, 39.7 nM in [5], 388 nM in test [2] and 1820 nM in test [3].
Regarding `CN1CCN(c2ccc(Nc3c4ccccc4nc4ccccc34)cc2)CC1`, the Ki in [4] is 412 nM; on Histamine H1 receptor, 403 nM; in test [2] it was 936 nM; in [3] it was 378 nM; in test [7], 1750 nM; in test [6] it was 1580 nM.
In the case of `Cc1cn2cc(CC(=O)N3CCC4(CC3)CN(Cc3ccc(-n5nccn5)cc3Cl)C4)nc2s1`, the Ki in test [4] turned out to be 520 nM; on D(3) dopamine receptor, 480 nM.
Regarding `CN1C2CCC1CC(OC(c1ccc(F)cc1)c1ccc(F)cc1)C2` (stereo not drawn), the inhibition constant Ki on D(2) dopamine receptor amounted to 767 nM; in test [4], 98.8 nM; at D(3) dopamine receptor, 116 nM; in [3], 374 nM; in test [7], 58.2 nM.
As to `NCCc1cn(S(=O)(=O)c2c(Cl)nc3sccn23)c2ccccc12`, the Ki came to 562 nM in test [1]; 1320 nM in [4]; 1650 nM on Histamine H1 receptor; 675 nM in test [2]; 1100 nM in test [6].
For `Cc1c(P(=S)(c2ccccc2)c2ccccc2)n2ccccc2[n+]1C/C=C/c1ccccc1`, the Ki in [4] is 816 nM; at Histamine H1 receptor it was over 10000 nM; in test [2], 701 nM.
Consider `CCCCN1CCC(COC(=O)c2cc(Cl)c(N)c3c2OCCO3)CC1`, for which the inhibition constant (Ki) was found to be 31.7 nM in test [4]; 669 nM at D(3) dopamine receptor; 4660 nM on Histamine H1 receptor; 52 nM in test [5]; 64.8 nM in test [2]; 1850 nM in [6].
As for `Cc1nc(-c2ccc(-c3ccc(C(=O)N4CCc5cc6c(cc54)C4(CCN(C)CC4)CO6)cc3)c(C)c2)no1` [SB-224289], the figures for the Ki in test [4], in test [2] and in [7] were 4340 nM, 502 nM and 2110 nM, respectively.
Regarding `CCc1ccc(OCc2ccccc2C(=O)Nc2ccc3nc(C)cc(N)c3c2)cc1`, the Ki in test [4] was found to be 2280 nM; in test [5] it was 227 nM; in [2] it was 700 nM; in test [7], 2080 nM.
Consider `COc1cccc([C@@H](C)NCCCc2ccccc2Cl)c1` [TECALCET HYDROCHLORIDE], for which the Ki in test [4] was determined as 41.5 nM; on D(3) dopamine receptor it was 875 nM; on Histamine H1 receptor, 909 nM; in test [5], 43 nM; in [2], 74.6 nM; in test [3] it was 2320 nM.
As for `Cc1cc(C)cc(-c2cnc3cc(Cl)c(-c4cccc(O)c4)cc3c2OCCCN)c1`, the Ki in [4] was over 10000 nM; at D(3) dopamine receptor, 416 nM; in [2] it was 5210 nM; in [7], 1680 nM.
Regarding `Cc1nn(C)c(C)c1-c1cccc2c1CC[C@H](N(C)C)C2`, the Ki in [1] stood at 10.2 nM; in [4], 158 nM; in [2], 1120 nM.
For the compound `NC[C@@H]1O[C@H](C23CC4CC(CC(C4)C2)C3)Cc2c1ccc(O)c2O`, the inhibition constant (Ki) amounted to 545 nM on D(3) dopamine receptor and 754 nM in [2].
